The record followed here is patent US12655174B2, “Adenosine A3 receptor agonists, preparation methods and uses thereof” (ZHEJIANG VIMGREEN PHARMACEUTICALS, LTD., priority 2020, dated 2026).

Data set [1] addresses T1, ADORA3 receptor (CHO cells stably expressing ADORA3 receptor) (Homo sapiens, UniProt P0DMS8).
T1 construct: expressed in transfected cells
T1 sequence (P0DMS8 1-318): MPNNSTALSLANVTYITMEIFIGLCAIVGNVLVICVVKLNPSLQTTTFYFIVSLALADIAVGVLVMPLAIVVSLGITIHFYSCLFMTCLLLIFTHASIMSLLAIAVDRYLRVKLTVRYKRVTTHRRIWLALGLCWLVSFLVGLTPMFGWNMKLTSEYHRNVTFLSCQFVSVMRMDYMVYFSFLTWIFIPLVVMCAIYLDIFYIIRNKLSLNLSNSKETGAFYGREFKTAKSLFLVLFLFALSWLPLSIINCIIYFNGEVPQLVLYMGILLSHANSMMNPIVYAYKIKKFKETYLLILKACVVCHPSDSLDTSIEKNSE
In words: Effect of compound on intracellular cAMP level by adenosine A3 receptor agonism. It counts as cell-based. The following applies: forskolin-stimulated. The protocol: Example 26: Test the Effect of Compound on Intracellular cAMP Level by Adenosine A3 Receptor Agonism
• 1) 1×HBSS with Ca2+ and Mg2+ (14 mL), 1 M HEPES (75 μL), a 7.5% (w/v) BSA stabilizer (pH 7.4, 200 μL), and 20 mM rolipram (7.5 μL) were respectively prepared as cAMP assay buffer. • 2) Preparation of compound source plate • a. […] A 10 mM stock solution was subjected to a 3-fold serial dilution by 100% (v/v) DMSO to prepare 10 doses of the test substance. • c. 1 mM of Forskolin was prepared by 100% (v/v) DMSO. • 3) Preparation of test plate • a. Prior to the assay, CHO cells stably expressing ADORA3 receptor were harvested and the cells were counted by using a Countess cell counter. […] The cells were seeded at a density of 2,000 cells/well in a 384-well plate. • 4) 10 nL/well of the serially diluted compound and 10 nL/well of 1 mM of forskolin were transferred to each well with ADORA3 receptor expressing cells by using Echo550. • 5) A cell plate was centrifuged at 1,000 rpm for 1 minute and then stirred at 600 rpm for 2 minutes. The plate was incubated at 37° C. • 6) An Eu-cAMP tracer working solution and an Ulight-anti-cAMP working solution were prepared according to the following table.
• 7) 5 μl/well of the Eu-cAMP tracer working solution and 5 μl/well of the Ulight-anti-cAMP working solution were added to each well of the plate. […] 2. Data Analysis • 1) An activation percentage was calculated by using the following formula:
[formula] • % Activation: activation percentage • Ratiocpd: ratio of emissivity of test compound • RatioLow control: ratio of low emissivity • RatioHigh control: ratio of high emissivity • 2) EC50 was calculated by an XLfit using the Hill equation to fit the activity percentage and a log of a compound concentration. 3. Test Result
(In general: cAMP levels reflect the balance of adenylyl cyclase and phosphodiesterase activity.)

A short description of data set [2]: Pharmacokinetic test of compound in SD rat. The format is in vivo. The following applies: SD rats, intragastric administration (IG), cassette dosing. The procedure:
Example 28: Pharmacokinetic Test of Compound in SD Rat
The animal species used in this experiment were SD rats. There were 3 animals per group. The rats were dosed in cassette format, i.e., multiple (1-6) different compounds were dosed simultaneously to the same group of the SD rats. The vehicle used for the drug was 5% DMSO+5% Solutl+90% ([…] methylcellulose M450), and the administration route was intragastric administration (IG).

Several values for one entry are separate records, joined by “and”; a condition that tells them apart may be missing. Identical values can stand only once.

One may read the EC50 as the concentration needed to bring the measured effect to its halfway point. The compound `CCOc1cncc(-c2nc(NCc3cccc(C)c3)c3ncn(C4O[C@H](C(=O)NC)[C@@H](O)[C@H]4O)c3n2)c1` (stereo in doubt) [compound 301, (2S,3S,4R,5S)-5-(2-(5-ethoxypyridin-3-yl)-6-((3-methylbenzyl)amino)-9H-purin-9-yl)-3,4-dihydroxyl-N-methyltetrahydrofuran-2-carboxamide] registered an EC50 in data set [1] of 3.78 nM. Moreover, the “AUC_D” value in data set [2] came to 744.06 kg·ng·h/mL/mg.

`CNC(=O)[C@H]1OC(n2cnc3c(NCc4ccccn4)nc(-c4cncc(OC)c4)nc32)[C@H](O)[C@@H]1O` (stereo in doubt) [compound 307, (2S,3S,4R,5S)-3,4-dihydroxyl-5-(2-(5-methoxypyridin-3-yl)-6-((pyridin-2-ylmethyl)amino)-9H-purin-9-yl)-N-methyltetrahydrofuran-2-carboxamide] registered a concentration for a half-maximal effect (EC50) in data set [1] of 9.4 nM. Also, in data set [2], the “AUC_D” value stood at 173.85 kg·ng·h/mL/mg.

`[2H]C([2H])([2H])NC(=O)[C@H]1O[C@@H](n2cnc3c(NCc4ccccc4)nc(-c4ccsc4)nc32)[C@H](O)[C@@H]1O` [compound 24, (2S,3S,4R,5R)-5-(6-(benzylamino)-2-(thiophen-3-yl)-9H-purin-9-yl)-3,4-dihydroxyl-N-(methyl-d3)-tetrahydrofuran-2-formamide]: in data set [1], the 50% effective concentration (EC50) amounted to 5.77 nM. In addition, in data set [2], the “AUC_D” value worked out at 86.00 kg·ng·h/mL/mg.

Turning to `CNC(=O)[C@H]1O[C@@H](n2cnc3c(NC)nc(-c4cncc(Cl)c4)nc32)[C@H](O)[C@@H]1O` [compound 70, (2S,3S,4R,5R)-5-(2-(5-chloropyridin-3-yl)-6-(methylamino)-9H-purin-9-yl)-3,4-dihydroxyl-N-methyltetrahydrofuran-2-carboxamide], in data set [1], the half-maximal effective concentration (EC50) was determined as 1.23 nM.

In turn, `[2H]C([2H])([2H])NC(=O)[C@H]1O[C@@H](n2cnc3c(NC([2H])([2H])[2H])nc(-c4ccsc4)nc32)[C@H](O)[C@@H]1O` [compound 92, (2S,3S,4R,5R)-3,4-dihydroxyl-N-(methyl-d3)-5-(6-(methyl-d3-amino)-2-(thiophen-3-yl)-9H-purin-9-yl)tetrahydrofuran-2-carboxamide] had an EC50 in data set [1] of less than 0.51 nM. For the same compound, the “AUC_D” value in data set [2] amounted to 83.00 kg·ng·h/mL/mg.

Take `CNC(=O)[C@H]1O[C@@H](n2cnc3c(NC)nc(-c4cccnc4)nc32)[C@H](O)[C@@H]1O` [compound 102, (2S,3S,4R,5R)-3,4-dihydroxyl-N-methyl-5-(6-(methylamino)-2-(pyridin-3-yl)-9H-purin-9-yl)tetrahydrofuran-2-carboxamide]: the EC50 in data set [1] is 1.41 nM.

The compound `CNC(=O)[C@H]1O[C@@H](n2cnc3c(NCc4cccc(C)n4)nc(-c4cccnc4)nc32)[C@H](O)[C@@H]1O` [compound 107] gave an EC50 in data set [1] of 5.22 nM.

`CNC(=O)[C@H]1O[C@@H](n2cnc3c(NCc4cccc(C)c4)nc(-c4cccnc4)nc32)[C@H](O)[C@@H]1O` [compound 108, (2S,3S,4R,5R)-3,4-dihydroxyl-N-methyl-5-(6-((3-methylbenzyl)amino)-2-(pyridin-3-yl)-9H-purin-9-yl)tetrahydrofuran-2-carboxamide] had an EC50 in data set [1] of 1.58 nM. In addition, the “AUC_D” value in data set [2] stood at 801.47 kg·ng·h/mL/mg.

In data set [1], `CNC(=O)[C@H]1O[C@@H](n2cnc3c(NCc4cccc(C)n4)nc(-c4cncc(OC)c4)nc32)[C@H](O)[C@@H]1O` [compound 111, (2S,3S,4R,5R)-3,4-dihydroxyl-5-(2-(5-methoxypyridin-3-yl)-6-((((6-methylpyridin-2-yl))methyl)amino)-9H-purin-9-yl)-N-methyltetrahydrofuran-2-carboxamide] gave an EC50 of 7.32 nM. In data set [2], the “AUC_D” value came to 230.72 kg·ng·h/mL/mg.

Turning to `CNC(=O)[C@H]1O[C@@H](n2cnc3c(NCc4cccc(C)c4)nc(-c4cncc(Cl)c4)nc32)[C@H](O)[C@@H]1O` [compound 160, (2S,3S,4R,5R)-5-(2-(5-chloropyridin-3-yl)-6-((3-methylbenzyl)amino)-9H-purin-9-yl)-3,4-dihydroxyl-N-methyltetrahydrofuran-2-carboxamide], in data set [1], the EC50 stood at 3.53 nM. Further, the “AUC_D” value in data set [2] was 1900.75 kg·ng·h/mL/mg and 1515.94 kg·ng·h/mL/mg.

Compound `CNC(=O)[C@H]1O[C@@H](n2cnc3c(NCc4cccc(C)c4)nc(-c4cncc(F)c4)nc32)[C@H](O)[C@@H]1O` [compound 161, (2S,3S,4R,5R)-5-(2-(5-fluoropyridin-3-yl)-6-((3-methylbenzyl)amino)-9H-purin-9-yl)-3,4-dihydroxyl-N-methyltetrahydrofuran-2-carboxamide] gave an EC50 in data set [1] of 0.74 nM. The “AUC_D” value in data set [2] worked out at 994.72 kg·ng·h/mL/mg.

In data set [1], `CNC(=O)[C@H]1O[C@@H](n2cnc3c(NCc4cccc(C(F)(F)F)c4)nc(-c4cncc(Cl)c4)nc32)[C@H](O)[C@@H]1O` [compound 179, (2S,3S,4R,5R)-5-(6-(3-(trifluoromethyl)benzylamino)-2-(5-chloropyridin-3-yl)-9H-purin-9-yl)-3,4-dihydroxyl-N-methyl-tetrahydrofuran-2-formamide] registered an EC50 of 9.44 nM. Moreover, the “AUC_D” value in data set [2] came out at 273.37 kg·ng·h/mL/mg.

For the compound `CNC(=O)[C@H]1O[C@@H](n2cnc3c(NCc4cc(Cl)ccn4)nc(-c4cccnc4)nc32)[C@H](O)[C@@H]1O` [compound 182, (2S,3S,4R,5R)-5-(6-((4-chloropyridin-2-yl)methylamino)-2-(pyridin-3-yl)-9H-purin-9-yl)-3,4-dihydroxyl-N-methyl-tetrahydrofuran-2-formamide], in data set [1], the EC50 was less than 0.51 nM. For the same compound, the “AUC_D” value in data set [2] amounted to 235.62 kg·ng·h/mL/mg.

`[2H]C([2H])([2H])NC(=O)[C@H]1O[C@@H](n2cnc3c(NCc4cc(C)cc(Cl)c4)nc(-c4cncc(Cl)c4)nc32)[C@H](O)[C@@H]1O` [compound 222, (2S,3S,4R,5R)-5-(6-((3-chloro-5-methylbenzyl)amino)-2-(5-chloropyridin-3-yl)-9H-purin-9-yl)-3,4-dihydroxyl-N-(methyl-d3)-tetrahydrofuran-2-carboxamide]: the midpoint of the response in data set [1], the EC50, lay at 0.89 nM.

For `[2H]C([2H])([2H])NC(=O)[C@H]1O[C@@H](n2cnc3c(NCc4cccc(CC)c4)nc(-c4cncc(Cl)c4)nc32)[C@H](O)[C@@H]1O` [compound 223, (2S,3S,4R,5R)-5-(2-(5-chloropyridin-3-yl)-6-((3-ethylbenzyl)amino)-9H-purin-9-yl)-3,4-dihydroxyl-N-(methyl-d3)-tetrahydrofuran-2-carboxamide], a half-maximal response in data set [1] (EC50) required 15.2 nM.

In turn, `[2H]C([2H])([2H])NC(=O)[C@H]1O[C@@H](n2cnc3c(NCc4cc(C)cc(C)c4)nc(-c4cncc(Cl)c4)nc32)[C@H](O)[C@@H]1O` [compound 224, (2S,3S,4R,5R)-5-(2-(5-chloropyridin-3-yl)-6-((3,5-dimethylbenzyl)amino)-9H-purin-9-yl)-3,4-dihydroxyl-N-(methyl-d3)-tetrahydrofuran-2-carboxamide] returned a half-maximal effective concentration (EC50) in data set [1] of 1.34 nM.

In turn, `[2H]C([2H])([2H])NC(=O)[C@H]1O[C@@H](n2cnc3c(NCc4cc(F)ccc4Cl)nc(-c4cncc(Cl)c4)nc32)[C@H](O)[C@@H]1O` [compound 246, (2S,3S,4R,5R)-5-(6-(2-chloro-5-fluorobenzylamino)-2-(5-chloropyridin-3-yl)-9H-purin-9-yl)-3,4-dihydroxyl-N-(methyl-d3)-tetrahydrofuran-2-carboxamide] returned an EC50 in data set [1] of 1.18 nM.

For `CNC(=O)[C@H]1O[C@@H](n2cnc3c(NCc4cccc(Cl)n4)nc(-c4cccnc4)nc32)[C@H](O)[C@@H]1O` [compound 247], the midpoint of the response in data set [1], the EC50, lay at 4.16 nM.

With `[2H]C([2H])([2H])NC(=O)[C@H]1O[C@@H](n2cnc3c(NCc4cccc(C)c4)nc(-c4cncc(CC)c4)nc32)[C@H](O)[C@@H]1O` [compound 282, (2S,3S,4R,5R)-5-(2-(5-ethylpyridin-3-yl)-6-((3-methylbenzyl)amino)-9H-purin-9-yl)-3,4-dihydroxyl-N-(methyl-d3)tetrahydrofuran-2-formamide], it took 4 nM to reach a half-maximal effect in data set [1] (EC50).

Regarding `[2H]C([2H])([2H])NC(=O)[C@H]1O[C@@H](n2cnc3c(NCc4cccc(C)c4)nc(-c4cncc(OC)c4)nc32)[C@H](O)[C@@H]1O` [compound 302], the EC50 in data set [1] was 2.26 nM.
